{"source": "patent US6004532A", "about": "“Formulation for Tin-^117m /diethylenetriaminepentaacetic acids” (Brookhaven Science Associates, priority 1998, dated 1999)", "origin": "cited, not measured here", "key": {"[1]": {"tested_on": "bone pain"}, "[2]": {"tested_on": "bone marrow", "conditions": "for contamination and radiation cystitis risk: therapeutic doses"}}}
{"compound": "O=[32P](O)(O)O", "note": "[^32 P orthophosphate]", "values": [{"measurement": "onset of pain relief", "setting": "[1]; pretreatment with androgen, after administration", "result": "five to fourteen"}]}
{"compound": "O=P([O-])(O)CN(CCN(CP(=O)([O-])O)CP(=O)(O)O)CP(=O)([O-])O.[153Sm+3]", "note": "[^153 Sm-EDTMP, ^153 Sm ethylenediaminetetramethylenephosphonate]", "values": [{"measurement": "myelosuppression", "setting": "[2]; human, in vivo", "result": "Reversible myelosuppression"}, {"measurement": "contamination and radiation cystitis risk", "setting": "[2]", "result": "creating contamination risks and potentially causing radiation cystitis"}, {"measurement": "duration of pain relief", "setting": "[1]; human, in vivo", "result": "four to forty"}, {"measurement": "onset of clinical benefit / pain relief", "setting": "[1]; human, in vivo", "result": "two"}, {"measurement": "onset of clinical benefit / symptom relief (frequently)", "setting": "[1]; human, in vivo", "result": "≤ 48", "unit": "h"}, {"measurement": "urinary excretion of radioactivity", "setting": "therapeutic doses 35 to 210 mCi", "result": "large amounts of radioactivity can be excreted in the patient's urine"}]}
{"compound": "^117m Sn (Sn^4+) diethylenetriaminepentaacetic acid [^117m Sn (Sn^4+) DTPA]", "values": [{"measurement": "contamination and radiation cystitis risk", "setting": "[2]", "result": "less risk of contamination and radiation cystitis"}, {"measurement": "palliation of bone pain", "setting": "[1]; Phase II pilot study, Atkins et al. (1995)", "result": "palliation of bone pain"}, {"measurement": "relief of bone pain in humans", "setting": "[1]; particular efficacy at about 9 to about 25 mCi per 70 kg, WO 95/29706", "result": "dose-dependent relief of bone pain"}, {"measurement": "bone uptake and retention compared with ^32 P orthophosphate, ^153 Sm-EDTMP, ^186 Re-HEDP, and ^89 SrCl2", "setting": "human, in vivo", "result": "higher bone uptake and retention"}]}
